Data from ChEMBL document CHEMBL4177524, “Discovery of hepatitis B virus capsid assembly inhibitors leading to a heteroaryldihydropyrimidine based clinical candidate (GLS4)” (Bioorg Med Chem, 2017).

Columns and labels:
[1] = biological target: Proto-oncogene tyrosine-protein kinase Src (Homo sapiens) (UniProt P12931); experiment: Inhibition of SRC (unknown origin) at 1 uM
[2] = AUC (0 to 24 hrs) in beagle dog at 45 mg/kg, po by LC/MS/MS analysis; type: ADME, organism-based, Canis lupus familiaris; design: time < 24 hr, dose 45 mg/kg, route oral; conditions: in vivo
[3] = AUC (0 to 24 hrs) in beagle dog at 5 mg/kg, iv by LC/MS/MS analysis; type: ADME, organism-based, Canis lupus familiaris; design: dose 5 mg/kg, time < 24 hr, route intravenous; conditions: in vivo
[4] = biological target: Nitric oxide synthase, inducible (Homo sapiens) (UniProt P35228); experiment: Inhibition of iNOS (unknown origin) at 1 uM
Canis familiaris [5] = experiment: Cmax in beagle dog at 15 mg/kg, po by LC/MS/MS analysis; type: ADME, organism-based, Canis lupus familiaris; design: dose 15 mg/kg, route oral; conditions: in vivo
[6] = biological target: Tyrosine-protein kinase ABL1 (Homo sapiens) (UniProt P00519); experiment: Inhibition of ABL1 (unknown origin) at 1 uM
Canis familiaris [7] = experiment: Biotransformation in po dosed beagle dog assessed as (R)-Ethyl 4-(2-bromo-4-fluorophenyl)-6-(morpholinomethyl)-2-(thiazol-2-yl)-1,4-dihydropyrimidine-5-carboxylate formation; type: ADME, organism-based, Canis lupus familiaris; conditions: in vivo
in vivo [8] = conditions: beagle, dog, po, 45 mg/kg
Description: Half life in beagle dog at 45 mg/kg, po by LC/MS/MS analysis

[9] = biological target: Oxysterols receptor LXR-beta (Homo sapiens) (UniProt P55055); experiment: Antagonist activity at LXRbeta (unknown origin) at 1 uM
[10] = biological target: Tyrosine-protein kinase JAK2 (Homo sapiens) (UniProt O60674); experiment: Inhibition of JAK2 (unknown origin) at 1 uM
[11] = biological target: Prostaglandin G/H synthase 1 (Homo sapiens) (UniProt P23219); experiment: Inhibition of COX-1 (unknown origin) at 1 uM
[12] = biological target: Oxysterols receptor LXR-beta (Homo sapiens) (UniProt P55055); experiment: Agonist activity at LXRbeta (unknown origin) at 1 uM
Canis familiaris [13] = experiment: Biotransformation in po dosed beagle dog assessed as (S)-Ethyl 4-(2-bromo-4-fluorophenyl)-6-(morpholinomethyl)-2-(thiazol-2-yl)-1,4-dihydropyrimidine-5-carboxylate formation; type: ADME, organism-based, Canis lupus familiaris; conditions: in vivo
[14] = biological target: D(1A) dopamine receptor (Homo sapiens) (UniProt P21728); experiment: Inhibition of dopamine D1 receptor (unknown origin) at 1 uM
[15] = biological target: Disintegrin and metalloproteinase domain-containing protein 17 (Homo sapiens) (UniProt P78536); experiment: Inhibition of TACE (unknown origin) at 1 uM
[16] = biological target: Tyrosine-protein kinase ZAP-70 (Homo sapiens) (UniProt P43403); experiment: Inhibition of ZA70 (unknown origin) at 1 uM
Canis familiaris [17] = experiment: Cmax in beagle dog at 45 mg/kg, po by LC/MS/MS analysis; type: ADME, organism-based, Canis lupus familiaris; design: dose 45 mg/kg, route oral; conditions: in vivo
[18] = biological target: Sodium/potassium-transporting ATPase (Homo sapiens) (UniProt P05023+P14415+P05026+P50993+P54709+P13637+Q13733+P54710); experiment: Inhibition of Sodium/potassium-transporting ATPase (unknown origin) at 1 uM; type: protein-complex assay
[19] = biological target: Core antigen (Hepatitis B virus) (UniProt Q03732); experiment: Inhibition of hepatitis B virus capsid assembly infected in human HepG2.215 cells assessed as reduction in viral DNA replication measured on day 7 by real time PCR analysis; type: cell-based
in vivo [20] = conditions: beagle, dog, po, 5 mg/kg
[21] = biological target: NAD-dependent protein deacetylase sirtuin-1 (Homo sapiens) (UniProt Q96EB6); experiment: Inhibition of SIRT1 (unknown origin) at 1 uM
[22] = AUC (0 to 24 hrs) in beagle dog at 15 mg/kg, po by LC/MS/MS analysis; type: ADME, organism-based, Canis lupus familiaris; design: dose 15 mg/kg, time < 24 hr, route oral; conditions: in vivo
[23] = Drug uptake in beagle dog liver by LC/MS/MS analysis; type: ADME, tissue-based, Canis lupus familiaris; conditions: in vivo
[24] = biological target: Mitogen-activated protein kinase 3 (Homo sapiens) (UniProt P27361); experiment: Inhibition of ERK1 (unknown origin) at 1 uM
in vivo [25] = conditions: beagle, dog, po, 15 mg/kg
Description: Half life in beagle dog at 15 mg/kg, po by LC/MS/MS analysis

Homo sapiens [26] = organism: Homo sapiens; experiment: Inhibition of neural phospholipase (unknown origin) at 1 uM
[27] = Volume of distribution at steady state in beagle dog at 5 mg/kg, iv by LC/MS/MS analysis; type: ADME, organism-based, Canis lupus familiaris; conditions: in vivo, read-out: Vdss
[28] = AUC (0 to 24 hrs) in beagle dog at 15 mg/kg, po for 7 days by LC/MS/MS analysis; type: ADME, organism-based, Canis lupus familiaris; design: time < 24 hr, dose 15 mg/kg, route oral; conditions: in vivo
Homo sapiens [29] = organism: Homo sapiens; experiment: Inhibition of lipase (unknown origin) at 1 uM
Homo sapiens [30] = organism: Homo sapiens; experiment: Inhibition of calcium channel (unknown origin) at 1 uM
[31] = biological target: RAC-alpha serine/threonine-protein kinase (Homo sapiens) (UniProt P31749); experiment: Inhibition of AKT1 (unknown origin) at 1 uM
[32] = AUC (0 to 24 hrs) in beagle dog at 5 mg/kg, po by LC/MS/MS analysis; type: ADME, organism-based, Canis lupus familiaris; design: time < 24 hr, dose 5 mg/kg, route oral; conditions: in vivo
in vivo [33] = conditions: beagle, dog, po, 15 mg/kg; remark: listed apart in the source
Description: Half life in beagle dog at 15 mg/kg, po for 7 days by LC/MS/MS analysis

[34] = biological target: Interleukin-8 receptors, CXCR1/CXCR2 (Homo sapiens) (UniProt P25025+P25024); experiment: Inhibition of CXCR1/2 (unknown origin) at 1 uM; type: protein assay
[35] = Drug uptake in beagle dog heart by LC/MS/MS analysis; type: ADME, tissue-based, Canis lupus familiaris; conditions: in vivo
[36] = biological target: Bile acid receptor (Homo sapiens) (UniProt Q96RI1); experiment: Agonist activity at FXR (unknown origin) at 1 uM
[37] = Clearance in beagle dog at 5 mg/kg, iv by LC/MS/MS analysis; type: ADME, organism-based, Canis lupus familiaris; conditions: in vivo
[38] = biological target: Low molecular weight phosphotyrosine protein phosphatase (Homo sapiens) (UniProt P24666); experiment: Inhibition of ACP1 (unknown origin) at 1 uM
Mus musculus [39] = experiment: Biotransformation in po dosed mouse assessed as (R)-Ethyl 4-(2-bromo-4-fluorophenyl)-6-(morpholinomethyl)-2-(thiazol-2-yl)-1,4-dihydropyrimidine-5-carboxylate formation; type: ADME, organism-based; conditions: in vivo
Homo sapiens [40] = organism: Homo sapiens; experiment: Inhibition of proteasome (unknown origin) at 1 uM
[41] = Half life in beagle dog at 5 mg/kg, iv by LC/MS/MS analysis; conditions: in vivo
Canis familiaris [42] = experiment: Cmax in beagle dog at 5 mg/kg, po by LC/MS/MS analysis; type: ADME, organism-based, Canis lupus familiaris; design: dose 5 mg/kg, route oral; conditions: in vivo
[43] = biological target: 72 kDa type IV collagenase (Homo sapiens) (UniProt P08253); experiment: Inhibition of MMP2 (unknown origin) at 1 uM
Mus musculus [44] = experiment: Biotransformation in po dosed mouse assessed as (S)-Ethyl 4-(2-bromo-4-fluorophenyl)-6-(morpholinomethyl)-2-(thiazol-2-yl)-1,4-dihydropyrimidine-5-carboxylate formation; type: ADME, organism-based; conditions: in vivo
[45] = biological target: Death-associated protein kinase 1 (Homo sapiens) (UniProt P53355); experiment: Inhibition of DAPK1 (unknown origin) at 1 uM
[46] = biological target: Bile acid receptor (Homo sapiens) (UniProt Q96RI1); experiment: Antagonist activity at FXR (unknown origin) at 1 uM
Canis familiaris [47] = experiment: Cmax in beagle dog at 15 mg/kg, po for 7 days by LC/MS/MS analysis; type: ADME, organism-based, Canis lupus familiaris; design: dose 15 mg/kg, route oral; conditions: in vivo, 168 h
[48] = biological target: Sodium-dependent serotonin transporter (Homo sapiens) (UniProt P31645); experiment: Inhibition of 5-Serotonin transporter (unknown origin) at 1 uM
[49] = biological target: Epidermal growth factor receptor (Homo sapiens) (UniProt P00533); experiment: Inhibition of EGFR (unknown origin) at 1 uM
[50] = Half life in beagle dog at 5 mg/kg, po by LC/MS/MS analysis; conditions: in vivo
[51] = biological target: Platelet-activating factor receptor (Homo sapiens) (UniProt P25105); experiment: Inhibition of platelet-activating factor receptor (unknown origin) at 1 uM
Trypsin (Homo sapiens) = Trypsin (Homo sapiens) (UniProt P07477+P07478+P35030); experiment: Inhibition of trypsin (unknown origin) at 1 uM; type: protein assay
[52] = Drug uptake in beagle dog lung by LC/MS/MS analysis; type: ADME, tissue-based, Canis lupus familiaris; conditions: in vivo
[53] = biological target: Adenosine receptor A1 (Homo sapiens) (UniProt P30542); experiment: Inhibition of adenosine receptor A1 (unknown origin) at 1 uM
[54] = Drug uptake in beagle dog brain by LC/MS/MS analysis; type: ADME, tissue-based, Canis lupus familiaris; conditions: in vivo
[55] = biological target: Protein kinase C alpha type (Homo sapiens) (UniProt P17252); experiment: Inhibition of PKCalpha (unknown origin) at 1 uM
[56] = biological target: Receptor-type tyrosine-protein kinase FLT3 (Homo sapiens) (UniProt P36888); experiment: Inhibition of FLT3 (unknown origin) at 1 uM
[57] = Toxicity in beagle dog administered via oral gavage for 28 days; type: organism-based, Canis lupus familiaris; conditions: in vivo
[58] = biological target: Calcium/calmodulin-dependent protein kinase type II subunit delta (Homo sapiens) (UniProt Q13557); experiment: Inhibition of CAMK2D (unknown origin) at 1 uM

Sequence of Bile acid receptor (Homo sapiens) (Q96RI1 whole entry): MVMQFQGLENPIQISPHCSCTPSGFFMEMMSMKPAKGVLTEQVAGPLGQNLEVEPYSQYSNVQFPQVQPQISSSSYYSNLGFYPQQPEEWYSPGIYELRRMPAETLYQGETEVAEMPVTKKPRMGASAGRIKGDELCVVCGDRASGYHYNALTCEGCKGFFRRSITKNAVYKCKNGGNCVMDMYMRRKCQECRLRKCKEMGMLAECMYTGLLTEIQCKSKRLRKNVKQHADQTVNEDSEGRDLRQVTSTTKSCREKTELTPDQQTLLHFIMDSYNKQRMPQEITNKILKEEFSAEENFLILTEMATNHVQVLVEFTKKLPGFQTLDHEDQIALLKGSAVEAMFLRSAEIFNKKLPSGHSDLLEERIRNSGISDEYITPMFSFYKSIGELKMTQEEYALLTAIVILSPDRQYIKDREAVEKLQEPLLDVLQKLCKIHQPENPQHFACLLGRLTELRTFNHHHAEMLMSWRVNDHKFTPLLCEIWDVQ
Sequence of Oxysterols receptor LXR-beta (Homo sapiens) (P55055 whole entry): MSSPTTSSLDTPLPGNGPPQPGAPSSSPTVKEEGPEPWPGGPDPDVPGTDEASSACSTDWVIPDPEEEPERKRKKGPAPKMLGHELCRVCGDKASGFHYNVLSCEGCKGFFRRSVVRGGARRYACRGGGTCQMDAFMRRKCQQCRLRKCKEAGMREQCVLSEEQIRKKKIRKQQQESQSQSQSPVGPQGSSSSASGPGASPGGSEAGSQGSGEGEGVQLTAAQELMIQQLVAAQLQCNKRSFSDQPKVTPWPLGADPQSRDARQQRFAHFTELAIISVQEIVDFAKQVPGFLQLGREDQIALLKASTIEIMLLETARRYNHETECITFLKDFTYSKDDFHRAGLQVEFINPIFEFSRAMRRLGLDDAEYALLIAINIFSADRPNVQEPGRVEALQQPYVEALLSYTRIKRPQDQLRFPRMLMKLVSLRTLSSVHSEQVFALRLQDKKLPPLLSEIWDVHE
Sequence of Core antigen (Hepatitis B virus) (Q03732 as listed by the source): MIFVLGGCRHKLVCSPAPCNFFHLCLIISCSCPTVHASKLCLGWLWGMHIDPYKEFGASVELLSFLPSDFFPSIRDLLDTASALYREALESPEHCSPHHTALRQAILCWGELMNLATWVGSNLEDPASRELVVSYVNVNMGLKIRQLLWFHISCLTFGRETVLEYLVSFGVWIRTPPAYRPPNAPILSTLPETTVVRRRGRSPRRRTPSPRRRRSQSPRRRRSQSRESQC
Sequence of Sodium-dependent serotonin transporter (Homo sapiens) (P31645 whole entry, looked up): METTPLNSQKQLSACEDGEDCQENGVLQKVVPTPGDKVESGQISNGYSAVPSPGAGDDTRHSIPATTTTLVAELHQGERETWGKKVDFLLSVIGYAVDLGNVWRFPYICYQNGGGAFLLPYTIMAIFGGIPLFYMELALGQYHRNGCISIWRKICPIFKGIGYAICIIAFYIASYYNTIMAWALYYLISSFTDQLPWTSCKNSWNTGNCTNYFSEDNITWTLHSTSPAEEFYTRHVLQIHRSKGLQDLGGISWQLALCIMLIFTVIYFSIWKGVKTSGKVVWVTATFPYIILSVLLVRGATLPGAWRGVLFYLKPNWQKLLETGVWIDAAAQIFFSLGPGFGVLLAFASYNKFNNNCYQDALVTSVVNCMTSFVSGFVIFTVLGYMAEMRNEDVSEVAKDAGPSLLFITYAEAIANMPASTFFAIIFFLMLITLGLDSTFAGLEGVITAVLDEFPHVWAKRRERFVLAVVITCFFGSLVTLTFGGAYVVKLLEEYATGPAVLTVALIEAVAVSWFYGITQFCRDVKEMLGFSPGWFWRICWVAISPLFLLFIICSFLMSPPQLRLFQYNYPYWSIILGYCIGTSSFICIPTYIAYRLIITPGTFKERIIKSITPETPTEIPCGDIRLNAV
Sequence of Prostaglandin G/H synthase 1 (Homo sapiens) (P23219 whole entry): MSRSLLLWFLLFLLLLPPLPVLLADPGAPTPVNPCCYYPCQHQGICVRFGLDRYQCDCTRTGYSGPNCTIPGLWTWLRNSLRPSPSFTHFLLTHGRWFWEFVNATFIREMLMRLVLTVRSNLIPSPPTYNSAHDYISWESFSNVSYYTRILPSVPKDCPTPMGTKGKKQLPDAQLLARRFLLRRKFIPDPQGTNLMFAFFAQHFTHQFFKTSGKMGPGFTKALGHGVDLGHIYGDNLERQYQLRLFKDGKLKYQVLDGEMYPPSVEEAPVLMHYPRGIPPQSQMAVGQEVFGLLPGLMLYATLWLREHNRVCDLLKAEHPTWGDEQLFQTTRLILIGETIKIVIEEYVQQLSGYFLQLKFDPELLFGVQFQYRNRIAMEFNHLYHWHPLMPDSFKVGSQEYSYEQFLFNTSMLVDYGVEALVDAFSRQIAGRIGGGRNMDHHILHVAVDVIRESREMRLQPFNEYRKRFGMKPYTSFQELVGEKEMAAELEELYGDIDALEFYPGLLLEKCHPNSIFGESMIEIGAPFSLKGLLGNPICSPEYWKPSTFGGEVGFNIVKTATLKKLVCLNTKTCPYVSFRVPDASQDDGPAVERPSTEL
Sequence of Low molecular weight phosphotyrosine protein phosphatase (Homo sapiens) (P24666 whole entry): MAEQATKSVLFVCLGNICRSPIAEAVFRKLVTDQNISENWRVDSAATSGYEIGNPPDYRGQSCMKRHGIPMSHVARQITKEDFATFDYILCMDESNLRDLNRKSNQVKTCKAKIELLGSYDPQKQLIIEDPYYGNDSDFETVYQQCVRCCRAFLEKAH
Sequence of Receptor-type tyrosine-protein kinase FLT3 (Homo sapiens) (P36888 whole entry): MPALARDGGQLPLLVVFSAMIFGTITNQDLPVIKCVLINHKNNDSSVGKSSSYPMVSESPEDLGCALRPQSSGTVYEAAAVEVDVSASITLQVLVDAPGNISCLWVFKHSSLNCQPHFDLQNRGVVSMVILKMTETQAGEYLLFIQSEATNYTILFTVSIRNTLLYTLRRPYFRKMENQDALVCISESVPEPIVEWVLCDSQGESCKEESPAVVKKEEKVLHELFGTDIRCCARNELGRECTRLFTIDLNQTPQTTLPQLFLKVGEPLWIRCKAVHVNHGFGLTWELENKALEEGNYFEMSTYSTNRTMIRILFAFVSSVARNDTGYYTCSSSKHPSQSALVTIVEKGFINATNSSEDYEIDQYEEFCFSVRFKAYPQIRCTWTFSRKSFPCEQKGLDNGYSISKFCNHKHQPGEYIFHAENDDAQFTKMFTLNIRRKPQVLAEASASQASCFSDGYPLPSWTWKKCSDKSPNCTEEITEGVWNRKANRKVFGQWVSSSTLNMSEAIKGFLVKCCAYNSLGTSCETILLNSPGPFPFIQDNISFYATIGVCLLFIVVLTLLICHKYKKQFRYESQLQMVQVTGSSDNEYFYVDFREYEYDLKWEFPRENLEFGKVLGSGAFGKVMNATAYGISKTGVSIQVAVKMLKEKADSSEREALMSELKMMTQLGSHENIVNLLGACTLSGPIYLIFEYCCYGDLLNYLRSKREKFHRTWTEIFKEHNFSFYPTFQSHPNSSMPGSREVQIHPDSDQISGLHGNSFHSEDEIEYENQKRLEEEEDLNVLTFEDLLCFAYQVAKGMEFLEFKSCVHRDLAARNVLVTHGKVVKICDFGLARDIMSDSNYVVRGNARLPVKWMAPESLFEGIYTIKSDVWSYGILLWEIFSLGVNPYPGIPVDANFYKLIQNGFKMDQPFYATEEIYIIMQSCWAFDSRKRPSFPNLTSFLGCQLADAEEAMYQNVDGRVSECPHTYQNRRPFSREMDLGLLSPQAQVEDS
Sequence of 72 kDa type IV collagenase (Homo sapiens) (P08253 110-660 limits assumed): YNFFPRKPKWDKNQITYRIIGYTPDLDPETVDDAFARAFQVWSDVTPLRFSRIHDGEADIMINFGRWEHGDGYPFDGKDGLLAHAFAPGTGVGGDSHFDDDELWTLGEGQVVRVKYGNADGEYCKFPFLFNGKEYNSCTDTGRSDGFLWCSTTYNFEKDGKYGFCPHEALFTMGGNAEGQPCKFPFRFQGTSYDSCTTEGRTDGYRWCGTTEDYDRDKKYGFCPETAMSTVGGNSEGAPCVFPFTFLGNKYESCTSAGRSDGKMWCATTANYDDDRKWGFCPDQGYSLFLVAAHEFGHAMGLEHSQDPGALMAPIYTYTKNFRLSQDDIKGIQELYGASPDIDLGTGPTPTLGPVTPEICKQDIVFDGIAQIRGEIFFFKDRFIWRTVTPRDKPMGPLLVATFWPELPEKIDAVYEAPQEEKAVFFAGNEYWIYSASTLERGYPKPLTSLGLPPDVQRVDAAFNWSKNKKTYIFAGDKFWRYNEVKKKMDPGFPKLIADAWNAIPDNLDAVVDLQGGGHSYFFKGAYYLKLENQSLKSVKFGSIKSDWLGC

Work on CCOC(=O)C1=C(CN2CCOCC2)NC(c2nccs2)=NC1c1ccc(F)cc1Br (centres undefined) yielded an inhibition [1] of -3%, an AUC(0-t) at 24 h [2] of 8470 ng·h/mL and an AUC(0-t) at 24 h [3] of 4350 ng·h/mL. It also gave an inhibition [4] of 7%, a Cmax (Canis familiaris [5]) of 698 ng/mL and an inhibition [6] of 2%. For the same molecule, the Drug metabolism (Canis familiaris [7]) was “Metabolite_Notdetected”, the half-life (in vivo [8]) was 6.29 h and the inhibition [9] was -7%. The inhibition [10] was 25%, the inhibition [11] was -10% and the Activity [12] was 5%. For the same molecule, the Drug metabolism (Canis familiaris [13]) was “Metabolite_Notdetected”, the inhibition [14] was 7% and the inhibition [15] was 2%. For the same molecule, the inhibition [16] was 9%, the Cmax (Canis familiaris [17]) was 1180 ng/mL and the inhibition [18] was 4%. It also gave an EC90 [19] of 6 nM, a bioavailability (in vivo [20]) of 15.6% and an inhibition [21] of 7%. The AUC(0-t) at 24 h [22] was 2760 ng·h/mL, the Drug uptake [23] was “Active” and the inhibition [24] was 7%. For the same molecule, the half-life (in vivo [25]) was 7.32 h, the inhibition (Homo sapiens [26]) was 9% and the Vd [27] was 6.86 L/kg. The AUC at 24 h [28] was 2830 ng·h/mL, the inhibition (Homo sapiens [29]) was 4% and the inhibition (Homo sapiens [30]) was -6%. The inhibition [31] was -3%, the AUC(0-t) at 24 h [32] was 695 ng·h/mL and the half-life at 168 h (in vivo [33]) was 9.47 h. For the same molecule, the inhibition [34] was 8%, the Drug uptake [35] was “Not Active” and the Activity [36] was 2%. For the same molecule, the clearance [37] was 17.9 mL/min/kg, the inhibition [38] was -4% and the Drug metabolism (Mus musculus [39]) was “Metabolite_Notdetected”. The inhibition (Homo sapiens [40]) was 2%, the half-life [41] was 9.85 h and the Cmax (Canis familiaris [42]) was 136 ng/mL. For the same molecule, the inhibition [43] was -3%, the Drug metabolism (Mus musculus [44]) was “Metabolite_Notdetected” and the inhibition [45] was 3%. It also gave an inhibition [46] of 4%, a Cmax (Canis familiaris [47]) of 524 ng/mL and an inhibition [48] of -1%. It also gave an inhibition [49] of 0%, a half-life [50] of 6.91 h and an inhibition [51] of 10%. For the same molecule, the inhibition (Trypsin (Homo sapiens)) was 4%, the Drug uptake [52] was “Not Active” and the inhibition [53] was 1%. The Drug uptake [54] was “Not Active”, the inhibition [55] was 1% and the inhibition [56] was 4%. For the same molecule, the NOAEL at 672 h [57] was 10 mg/kg and the inhibition [58] was 11%.
